# Source: patent publication US20010007862A1, “METHOD OF SELECTING A SALT FOR MAKING AN INCLUSION COMPLEX” (priority 1996, published 2001)
# Counter-ions that a name gives are not always drawn.
# Assay: Equilibrium solubility of ziprasidone salts in 40% (w/v) aqueous SBECD
# Settings: 40% SBECD
# Excerpt: Many different experimental protocols can be envisioned and implemented.
smiles,measurement,value
"O=C1Cc2cc(CCN3CCN(c4nsc5ccccc45)CC3)c(Cl)cc2N1 [mesylate, Ziprasidone Mesylate]",Rank of solubility among salt candidates and cyclodextrin solutions tested,highest solubility
